In the NIST ThermoML archive (doi:10.1016/j.jct.2015.04.003):
± gives the expanded uncertainty stated by the source.

Experiment: Boiling temperature at pressure P
Conditions: 101.33 kPa; Liquid; Ebulliometric method (Recirculating still)

| Structure (SMILES) | Boiling temperature at pressure P |
| --- | --- |
| COc1ccccc1O [2-methoxyphenol] | 205.10 ± 0.05 °C |
| COc1ccccc1 [anisole] | 153.54 ± 0.05 °C |
| CCCCOC(C)=O [butyl ethanoate] | 125.92 ± 0.05 °C |
